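Tested at 5 concentrations; 48 h exposure; 96-well plates; endpoints linearly interpolated, else capped at highest concentration. At the GI50, growth is halved. At the TGI there is no net growth.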

What is called GI50 is the concentration that inhibits growth by half. In general, TGI refers to the concentration at which net growth stops.

Among the test systems are SK-MEL-28 melanoma; HCT-15 colon; OVCAR-5 ovarian; UO-31 renal; LOX IMVI melanoma; SR leukemia; HL-60(TB) leukemia; DU-145 prostate; SK-MEL-5 melanoma; RPMI-8226 leukemia.
Assay in all cases: DTP human tumour cell line panel, 48 h

For `CC(=O)[CH-]C(C)=O.CC(=O)[CH-]C(C)=O.N=CC=N.[Sn+2]`, the GI50 in the experiment on SK-MEL-28 melanoma is 1.92 µM; with HCT-15 colon, 2.7 µM; in the experiment with OVCAR-5 ovarian, 7.29 µM; with UO-31 renal, 9 µM; in the experiment with LOX IMVI melanoma it was 1.57 µM; in the experiment on SR leukemia, 1.06 µM. The GI50 with HL-60(TB) leukemia was 2.09 µM; in the experiment with DU-145 prostate, 2.77 µM; with SK-MEL-5 melanoma it was 5.46 µM; in the experiment with RPMI-8226 leukemia, 1.48 µM. The concentration for total growth inhibition (TGI) turned out to be 4.27 µM in the experiment with SK-MEL-28 melanoma; 7.14 µM in the experiment on HCT-15 colon; 19.2 µM in the experiment on OVCAR-5 ovarian; 21.1 µM with UO-31 renal; 2.97 µM in the experiment on LOX IMVI melanoma; 5.3 µM in the experiment on SR leukemia. The TGI in the experiment on HL-60(TB) leukemia was 15.3 µM; with DU-145 prostate, 11.2 µM; in the experiment with SK-MEL-5 melanoma it was 16.9 µM; with RPMI-8226 leukemia, 4.38 µM.
In the case of `CCN(CCO)CCNc1ccc(C)c2sc3cc(Cl)ccc3c(=O)c12`, the GI50 with SK-MEL-28 melanoma is 1.64 µM; in the experiment with HCT-15 colon, 0.538 µM; in the experiment on OVCAR-5 ovarian it was 1.59 µM; in the experiment with UO-31 renal it was 1.1 µM; with LOX IMVI melanoma it was 1.59 µM; in the experiment on SR leukemia, 0.751 µM. For the same compound, the GI50 in the experiment with HL-60(TB) leukemia was 1.56 µM; in the experiment with DU-145 prostate, 1.57 µM; in the experiment on SK-MEL-5 melanoma, 1.54 µM; in the experiment on RPMI-8226 leukemia, 1.86 µM. Moreover, the total growth inhibition concentration (TGI) is 3.23 µM in the experiment on SK-MEL-28 melanoma; 1.85 µM with HCT-15 colon; 3.3 µM in the experiment on OVCAR-5 ovarian; 2.4 µM with UO-31 renal; 3.06 µM with LOX IMVI melanoma; 2.78 µM with SR leukemia. In addition, the concentration for total growth inhibition (TGI) in the experiment with HL-60(TB) leukemia was 3.55 µM; in the experiment with DU-145 prostate, 2.94 µM; with SK-MEL-5 melanoma it was 2.88 µM; in the experiment with RPMI-8226 leukemia it was 4.6 µM.
As for `COc1cc(-c2cn(C)c(=O)c(C)c2C)cc(OC)c1CN1CC[C@H](N2CCN(c3ccc(N[C@H]4CCC(=O)NC4=O)cc3F)CC2)C(F)(F)C1`, the GI50 is 15.6 µM in the experiment on SK-MEL-28 melanoma; 10.7 µM with HCT-15 colon; 15.8 µM in the experiment with OVCAR-5 ovarian; 4.56 µM with UO-31 renal; 11.5 µM in the experiment on LOX IMVI melanoma; 6.7 µM in the experiment with SR leukemia. Also, the GI50 in the experiment with HL-60(TB) leukemia was 2.92 µM; in the experiment on DU-145 prostate, 27.6 µM; in the experiment with SK-MEL-5 melanoma it was 4.64 µM; in the experiment on RPMI-8226 leukemia, 6.43 µM. In addition, the TGI in the experiment on SK-MEL-28 melanoma turned out to be 30.9 µM; in the experiment on HCT-15 colon it was 24.1 µM; with OVCAR-5 ovarian, 31.5 µM; in the experiment on UO-31 renal, 17.6 µM; in the experiment with LOX IMVI melanoma, 24.9 µM; in the experiment with SR leukemia, 51 µM. Also, the TGI in the experiment with HL-60(TB) leukemia was > 100 µM; in the experiment on DU-145 prostate it was > 100 µM; in the experiment with SK-MEL-5 melanoma, 18.8 µM; with RPMI-8226 leukemia, > 100 µM.
Consider `NCCN1CCN(c2nccc(-c3ccc4ccccc4c3)n2)CC1`, for which the GI50 was 1.85 µM with SK-MEL-28 melanoma; 1.79 µM in the experiment on HCT-15 colon; 1.85 µM with OVCAR-5 ovarian; 1.5 µM in the experiment with UO-31 renal; 1.76 µM in the experiment on LOX IMVI melanoma; 1.87 µM with SR leukemia. Further, the GI50 in the experiment with HL-60(TB) leukemia was 2.23 µM; with DU-145 prostate it was 1.85 µM; with SK-MEL-5 melanoma it was 1.67 µM; in the experiment on RPMI-8226 leukemia, 2.08 µM. In addition, the TGI in the experiment with SK-MEL-28 melanoma was determined as 3.42 µM; in the experiment with HCT-15 colon, 3.54 µM; in the experiment with OVCAR-5 ovarian, 4.04 µM; with UO-31 renal, 2.96 µM; in the experiment with LOX IMVI melanoma, 3.31 µM; in the experiment with SR leukemia it was 6.11 µM. Besides, the TGI with HL-60(TB) leukemia was 5.76 µM; in the experiment on DU-145 prostate it was 3.42 µM; in the experiment with SK-MEL-5 melanoma, 3.05 µM; with RPMI-8226 leukemia, 5.72 µM.
As to `CNC(=O)c1cc(Oc2ccc(NC(=O)Nc3ccc(Cl)c(OC(F)(F)F)c3)c(F)c2)ccn1`, the GI50 in the experiment on SK-MEL-28 melanoma is 1.01 µM; with HCT-15 colon it was 1.58 µM; in the experiment on OVCAR-5 ovarian, 3.93 µM; in the experiment with UO-31 renal, 1.07 µM; with LOX IMVI melanoma, 1.76 µM; in the experiment on SR leukemia, 1.49 µM. The GI50 in the experiment with HL-60(TB) leukemia was 1 µM; in the experiment on DU-145 prostate it was 4.24 µM; in the experiment on SK-MEL-5 melanoma, 1.63 µM; in the experiment with RPMI-8226 leukemia it was 1.32 µM. Moreover, the TGI in the experiment with SK-MEL-28 melanoma was 4.27 µM; in the experiment with HCT-15 colon it was 18 µM; in the experiment on OVCAR-5 ovarian it was > 33.2 µM; in the experiment on UO-31 renal, 13.3 µM; in the experiment with LOX IMVI melanoma, 25.2 µM; with SR leukemia, 7.99 µM. In addition, the total growth inhibition concentration (TGI) in the experiment with HL-60(TB) leukemia was 6.53 µM; in the experiment with DU-145 prostate, > 33.2 µM; in the experiment on SK-MEL-5 melanoma, 5.46 µM; in the experiment on RPMI-8226 leukemia, 7.85 µM.
For the compound `COc1cc(/C=C2\CC3C4CC=C5CC(N6CCCC6)CC[C@]5(C)C4CC[C@]3(C)C2OC(C)=O)ccc1OCCN1CCCC1` (stereo partly specified), the GI50 in the experiment on SK-MEL-28 melanoma is 2.51 µM; in the experiment on HCT-15 colon it was 1.52 µM; in the experiment with OVCAR-5 ovarian, 3.01 µM; in the experiment on UO-31 renal, 1.86 µM; with LOX IMVI melanoma, 1.27 µM; in the experiment with SR leukemia it was 1.83 µM. The GI50 in the experiment with HL-60(TB) leukemia is 2.05 µM; in the experiment with DU-145 prostate it was 3.52 µM; in the experiment on RPMI-8226 leukemia it was 1.67 µM. Moreover, the total growth inhibition concentration (TGI) was 5.42 µM in the experiment on SK-MEL-28 melanoma; 3.4 µM in the experiment with HCT-15 colon; 7.09 µM in the experiment on OVCAR-5 ovarian; 3.35 µM in the experiment on UO-31 renal; 2.6 µM in the experiment on LOX IMVI melanoma; 4.01 µM in the experiment on SR leukemia. In addition, the concentration for total growth inhibition (TGI) in the experiment with HL-60(TB) leukemia was 4.36 µM; in the experiment with DU-145 prostate, > 100 µM; in the experiment on RPMI-8226 leukemia it was 3.82 µM.
Regarding `Cc1ccc(C(=O)CC(Sc2cccc(Cl)c2Cl)c2ccc(Cl)cc2)cc1C` (stereo unspecified), the GI50 with SK-MEL-28 melanoma is 20.5 µM; in the experiment with OVCAR-5 ovarian, 22.4 µM; in the experiment on UO-31 renal, 20 µM; in the experiment on LOX IMVI melanoma, 13.5 µM; in the experiment on SR leukemia it was 7.23 µM; in the experiment with HL-60(TB) leukemia, 30.6 µM. The GI50 with DU-145 prostate is 16.1 µM; in the experiment with SK-MEL-5 melanoma it was 16.6 µM; in the experiment on RPMI-8226 leukemia, 5.76 µM. The TGI in the experiment on SK-MEL-28 melanoma was 44.8 µM; in the experiment with OVCAR-5 ovarian, 59.8 µM; in the experiment with UO-31 renal, 40.9 µM; in the experiment with LOX IMVI melanoma it was 32.2 µM; in the experiment with SR leukemia, > 100 µM; in the experiment with HL-60(TB) leukemia it was > 100 µM. Moreover, the TGI with DU-145 prostate came to 34.9 µM; with SK-MEL-5 melanoma, 33 µM; with RPMI-8226 leukemia it was 48.2 µM.

The values are drawn from PubChem BioAssay (NCI).
